Laboratory results from patent US10662214B2, “Compound of 4′-thionucleoside, as well as preparation method therefor, pharmaceutical composition thereof and application thereof” (Sichuan Kelun-Biotech Biopharmaceutical Co., Ltd., priority 2015, dated 2020).

Key:
[1] = tested on: human pancreatic cancer cell BxPC-3; experiment: Subcutaneous xenograft of human pancreatic cancer cell BxPC-3 in a nude mouse (Experimental example 4); format: in vivo
Procedure: According to methods similar to those in sections 1 to 3 in Experimental example 2, pancreatic cancer cell BxPC-3 was cultured as a monolayer in vitro, and inoculated; the animals were randomized into groups; and samples were prepared.
Mice bearing a tumor having a volume of 80-250 mm^3 were selected, and randomized into 6 groups (8 mice per group). The dosing volume was 10 mL/kg.
For statistical calculations of the test indexes, please refer to Experimental example 2.
The test results obtained by administrating (intravenous administration (i.v.) or oral administration (p.o.)) once a week for 3 weeks are shown in table 7-2.

[2] = tested on: colorectal cancer cell HCT-116; experiment: Subcutaneous xenograft of colorectal cancer cell HCT-116 in nude mice (Experimental example 2); details: for TGI (%): twice a week for 3 weeks; for Body weight change: 14 days after last administration vs beginning; for Tumor regression, CR (complete tumor regression) / Tumor regression, PR (partial tumor regression): animals out of 8
Procedure: This experimental example was used for the evaluation of the effectiveness of the compounds of the present invention in inhibiting the proliferation of a subcutaneous xenograft of human tumor cells via various routes of administration.
Gastric cancer cell NCI-N87 and colorectal cancer cell HCT-116 were cultured as a monolayer in vitro, and the culture conditions were RPMI-1640 culture medium supplemented with 10% heat inactivated Fetal Bovine Serum, and incubation in an incubator at 37° C. and 5% CO2. The cells were subcultured by treatment with trypsin-EDTA digestion.
The tumor cells were respectively inoculated into BALB/c nude mice (SPF grade, female, 16-18 g per mouse, about 6 to 8 weeks old, Beijing Vital River Laboratory Animal Technology Co., Ltd.).
Each nude mouse was inoculated with about 2.5×10^6 HCT-116 tumor cells or about 3×10^6 NCI-N87 tumor cells (suspended in 0.1 ml PBS) subcutaneously into the underarm of the right flank. After the inoculated tumor reached a size in the range of about 100-200 mm^3, nude mice bearing a tumor that is too small (smaller than 100 mm^3) or too big (bigger than 200 mm^3) were removed from the study, and the remaining ones were randomized into groups.
Sulfobutyl ether-β-cyclodextrin (SE-β-CD) was formulated with physiological saline to form a 10% solution, which was then filtered through a 0.22 μm sterile filter for later use.
An appropriate amount of the test compound was weighted, and added in DMSO. The resultant solution was vortexed to uniformity, and the 10% solution of SE-β-CD was added according to the desired concentration. The solution was vortexed to uniformity, and the final concentration of DMSO was adjusted to 5%. A gemcitabine injection (a positive control) was directly diluted to the desired concentration with physiological saline. A 10% solution of SE-β-CD containing 5% DMSO was prepared as a vehicle control.
Mice bearing a tumor having a volume of about 100-200 mm^3 were selected, and randomized into 5 groups (8 mice per group). The dosing volume was 10 mL/kg, and the administration (intravenous administration (i.v.) or oral administration (p.o.)) was performed twice a week for 3 weeks. The tumor volume and body weight were measured twice a week after the administration, and the mortality of animals was observed every day.
The diameter of a tumor was measured, and the tumor volume was calculated according to the following formula: V=0.5a×b^2, wherein a and b respectively represent the major and minor diameters of a tumor. The anti-tumor effect was evaluated by the tumor growth inhibition (TGI) (%). TGI (%)=[1−(VT-end−VT-start)/(VC-end−VC-start)]*100%
The body weight of an animal was measured twice a week.

Question: Which results are given for CC(C)OC(=O)[C@H](C)N[P@](=O)(OC[C@H]1S[C@@H](n2ccc(N)nc2=O)[C@@H](F)[C@@H]1O)Oc1ccccc1 [Compound C8, (S)-isopropyl 2-(((S)-(((2R,3S,4S,5R)-5-(4-amino-2-oxopyrimidin-1(2H)-yl)-4-fluoro-3-hydroxytetrahydrothiophen-2-yl)methoxy)(phenoxy)phosphoryl)amino)propanoate]?
Answer: TGI (%) ([1]; 0.06 mmol/kg p.o., twice a week for 3 weeks): 47.7%; TGI (%) ([1]; 0.12 mmol/kg p.o., twice a week for 3 weeks): 53.2%; TGI (%) ([1]; 0.23 mmol/kg p.o., once a week for 3 weeks): 51.0%; Mortality ([2]; 190 μmol/kg i.v.): 0; TGI (%) ([2]; 190 μmol/kg i.v.): 111%; Body weight change ([2]; 190 μmol/kg i.v.): +7.4%; Tumor regression, CR (complete tumor regression) ([2]; 190 μmol/kg i.v.): 1/8 CR,; Tumor regression, PR (partial tumor regression) ([2]; 190 μmol/kg i.v.): 7/8 PR; Mortality ([2]; 190 μmol/kg p.o.): 0; TGI (%) ([2]; 190 μmol/kg p.o.): 113%; Body weight change ([2]; 190 μmol/kg p.o.): +8.9%; Tumor regression, CR (complete tumor regression) ([2]; 190 μmol/kg p.o.): 1/8 CR,; Tumor regression, PR (partial tumor regression) ([2]; 190 μmol/kg p.o.): 7/8 PR
